Reference: the supplement of paper PMC10307832

How the values were obtained:
Experiment in all cases: relative viability (nuclei count vs DMSO), 5 days (fraction); higher = more cells survive
Seliciclib + Navitoclax = compound: CC[C@H](CO)Nc1nc(NCc2ccccc2)c2ncn(C(C)C)c2n1 [Seliciclib] + CC1(C)CCC(c2ccc(Cl)cc2)=C(CN2CCN(c3ccc(C(=O)NS(=O)(=O)c4ccc(N[C@H](CCN5CCOCC5)CSc5ccccc5)c(S(=O)(=O)C(F)(F)F)c4)cc3)CC2)C1 [Navitoclax] (partner 0.5 µM)
Outline: (§1)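 Relative viability equals treated-well nuclei counts divided by vehicle-well nuclei counts. Counts came from 4× images of lung cancer cell lines grown in 1536-well plates for 5 days after pin-tool dosing on the day after seeding. Dosing used one drug alone or a fixed anchor-drug dose plus five library-drug doses (not always all listed) in √10 steps, and values are medians of duplicate plates.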

Seliciclib + Crizotinib = compound: CC[C@H](CO)Nc1nc(NCc2ccccc2)c2ncn(C(C)C)c2n1 [Seliciclib] + C[C@@H](Oc1cc(-c2cnn(C3CCNCC3)c2)cnc1N)c1c(Cl)ccc(F)c1Cl [Crizotinib] (partner 1 µM)
Outline: as §1

Seliciclib + Tozasertib = compound: CC[C@H](CO)Nc1nc(NCc2ccccc2)c2ncn(C(C)C)c2n1 [Seliciclib] + Cc1cc(Nc2cc(N3CCN(C)CC3)nc(Sc3ccc(NC(=O)C4CC4)cc3)n2)n[nH]1 [Tozasertib] (partner 0.1 µM)
Outline: as §1

Seliciclib + Vorinostat = compound: CC[C@H](CO)Nc1nc(NCc2ccccc2)c2ncn(C(C)C)c2n1 [Seliciclib] + O=C(CCCCCCC(=O)Nc1ccccc1)NO [Vorinostat] (partner 1 µM)
Outline: as §1

Cell Line	relative viability (Seliciclib + Navitoclax; first compound 0.08 µM)	relative viability (Seliciclib + Navitoclax; first compound 0.253 µM)	relative viability (Seliciclib + Navitoclax; first compound 0.8 µM)	relative viability (Seliciclib + Navitoclax; first compound 2.53 µM)	relative viability (Seliciclib + Navitoclax; first compound 8 µM)	relative viability (Seliciclib + Crizotinib; first compound 0.08 µM)	relative viability (Seliciclib + Crizotinib; first compound 0.253 µM)	relative viability (Seliciclib + Crizotinib; first compound 0.8 µM)	relative viability (Seliciclib + Crizotinib; first compound 2.53 µM)	relative viability (Seliciclib + Crizotinib; first compound 8 µM)	relative viability (Seliciclib + Tozasertib; first compound 0.08 µM)	relative viability (Seliciclib + Tozasertib; first compound 0.253 µM)	relative viability (Seliciclib + Tozasertib; first compound 0.8 µM)	relative viability (Seliciclib + Tozasertib; first compound 2.53 µM)	relative viability (Seliciclib + Tozasertib; first compound 8 µM)	relative viability (Seliciclib + Vorinostat; first compound 0.08 µM)	relative viability (Seliciclib + Vorinostat; first compound 0.253 µM)	relative viability (Seliciclib + Vorinostat; first compound 0.8 µM)	relative viability (Seliciclib + Vorinostat; first compound 2.53 µM)	relative viability (Seliciclib + Vorinostat; first compound 8 µM)
NCI-H441	0.603	0.365	0.526	0.566	0.59	0.896	0.631	0.833	0.66	0.519	0.729	0.598	0.704	0.513	0.406	0.844	0.418	0.898	0.771	0.639
NCI-H2170	0.671	0.338	0.596	0.667	0.523	1.1	0.873	1.18	1.4	1.11	0.728	0.707	0.589	0.83	0.507	0.742		0.774	0.687	0.663
NCI-H1355	0.952	0.861	1.01	1.13	0.873	1.01	1.05	1.13	1.16	0.998	0.586	0.517	0.513	0.506	0.388	0.635	0.605	0.647	0.523	0.5
SW 1573	1.09	0.732	0.901	0.86	0.655	0.823	0.759	0.77	0.847	0.642	0.248	0.162	0.195	0.136	0.175	0.943	0.687	0.708	0.632	0.346
NCI-H2347	0.763	0.801	0.73	0.859	0.568	0.711	0.741	0.742	0.763	0.595	0.632	0.517	0.522	0.645	0.547	0.595	0.656	0.443	0.566	0.432
LCLC-97TM1	0.324	0.462	0.414		0.223	0.295	0.366	0.463		0.252	0.355	0.248	0.243	0.168	0.153	0.803	0.706	0.82	0.106	0.222
EMC-BAC-2	1.13	1.11	1.1	1.27	1.09	0.735	0.744	0.824	0.728	0.534	0.257	0.242	0.318	0.274	0.257	0.454	0.414	0.547	0.259	0.307
NCI-H1975	1	0.959	1.05	1.12	0.878	0.966	0.984	0.917	0.924	0.662	0.777	0.769	0.704	0.681	0.296	0.689	0.608	0.66	0.652	0.46
BEN	0.0594		0.0808	0.213	0.0793	0.753		0.822	0.929	0.832	0.451	0.481	0.585	0.502	0.468	0.543	0.533	0.55	0.502	0.489
SK-MES-1	1.24	1.34	1.11	1.04	0.715	1	1	0.891	0.96	0.914	0.907	0.939	0.807	0.881	0.674	1.03	1.13	1.11	1.02	1.01
NCI-H23	0.813	0.677	0.842	0.624	0.565	0.454	0.427	0.432	0.42	0.48	0.424	0.368	0.379	0.426	0.322	0.648	0.554	0.618	0.367	0.499
NCI-H520	0.96	0.847	0.997	1.2	1.18	0.85	0.552	0.638	0.921	0.589	0.47		0.406	0.459	0.573	0.704	0.635	0.802	0.725	0.632
CAL-12T	1.25		1.04	1.03	1.06	0.624		0.846	0.687	0.461	0.297	0.313	0.294	0.247	0.234	0.583	0.407	0.788	0.7	0.625
EPLC-272H	1.24	0.987	1.12	1.28	1.12	0.88	0.729	0.746	0.903	0.636	0.247	0.231	0.297	0.181	0.153	0.43	0.506	0.476	0.311	0.405
NCI-H2405	0.666	0.71	0.754	0.717	0.631	0.755	0.841	0.807	0.877	0.794	0.753	0.797	0.762	0.602	0.601	1.06	1.2	0.98	0.742	0.739
HCC-15	0.719	0.77	0.677	0.718	0.491	0.798	0.856	0.806	0.869	0.599	0.403	0.502	0.372	0.443	0.331	0.893	0.855	0.838	0.747	0.761
PC-3 [JPC-3]	0.829	0.84	0.77	0.786	0.751	0.998	0.994	0.95	0.921	0.861	0.883	0.837	0.871	0.88	0.708	0.796	0.957	0.876	0.601	0.633
